Where two headings read alike, the source gives them in different places. [OPr] = 2'-O-propyl ribonucleoside; d = 2'-deoxy (DNA)
Experiments:
[1] = tested on: 25mer oligoribonucleotide complement; experiment: Melting curves with 25mer oligoribonucleotide complement; type: binding; settings: 17mer hybridized with 25mer oligoribonucleotide complement
Description: Other sugar modifications: The effects of other 2′ sugar modifications besides 2′-O-methyl on antisense activity in chimeric oligonucleotides have been examined. These modifications are listed in Table 4, along with the Tm values obtained when 17mer oligonucleotides having 2′-modified nucleotides flanking a 7-base deoxy gap were hybridized with a 25mer oligoribonucleotide complement as described in Example 25. […] As alkyl length increased, Tm decreased.
Absorbance vs. temperature curves were measured at 260 nm using a Gilford 260 spectrophotometer interfaced to an IBM PC computer and a Gilford Response II spectrophotometer. The buffer contained 100 mM Na^+, 10 mM phosphate and 0.1 mM EDTA, pH 7. Oligonucleotide concentration was 4 μM each strand determined from the absorbance at 85° C. and extinction coefficients calculated according to Puglisi and Tinoco [Methods in Enzymol., 180, 304 (1989). Tm values, free energies of duplex formation and association constants were obtained from fits of data to a two state model with linear sloping baselines. [Petersheim and Turner, Biochemistry, 22, 256 (1983). Reported parameters are averages of at least three experiments. For some oligonucleotides, free energies of duplex formation were also obtained from plots of Tm^−1 vs log10 (concentration). Borer et al., J. Mol. Biol., 86, 843 (1974).

PKC-α mRNA = experiment: Northern blot analysis of PKC-α mRNA levels; type: cell-based, human; settings: result in words
Procedure: Oligonucleotides having SEQ ID NO:4 were synthesized as uniformly phosphorothioate chimeric oligonucleotides having a centered deoxy gap of varying lengths flanked by 2′-O-methylated regions. These oligonucleotides (500 nM concentration) were tested for effects on PKC-A mRNA levels by Northern blot analysis.
Additional phosphorothioate oligonucleotides targeted to the human PKC-α 3′ untranslated region were designed and synthesized.

[2] = tested on: ras-luciferase (codon-12 point mutation of activated H-ras); experiment: ras-luciferase reporter gene system; type: cell-based, human; settings: for effect on ras expression: chimeric backbone-modified oligonucleotides, result in words; for inhibition of ras-luciferase activity: cells expressing the mutant form of ras-luciferase, dose response, FIGS. 1 and 2
[3] = tested on: complementary RNA strand (the sense strand); experiment: Thermal melting analysis of 2′-deoxy-2′-fluoro modified oligonucleotides (hybridization thermodynamics); type: binding
ras mRNA = experiment: Northern blot analysis of ras expression in T24 cells; type: cell-based, human
Procedure: The human urinary bladder cancer cell line T24 was obtained from the American Type Culture Collection (Rockville Md.). Cells were grown in McCoy's 5A medium with L-glutamine (GIBCO-BRL, Gaithersburg, Md.), supplemented with 10% heat-inactivated fetal calf serum and 50 U/ml each of penicillin and streptomycin. Cells were seeded on 100 mm plates. When they reached 70% confluency, they were treated with oligonucleotide. Plates were washed with 10 ml prewarmed PBS and 5 ml of OptiMEM (GIBCO) reduced-serum medium containing 2.5 μl DOTMA. Oligonucleotide was then added to the desired concentration. After 4 hours of treatment, the medium was replaced with McCoy's medium. Cells were harvested 48 hours after oligonucleotide treatment and RNA was isolated using a standard CsCl purification method. [Kingston in Current Protocols in Molecular Biology, F. M. Ausubel, R. Brent, R. E. Kingston, D. D. Moore, J. A. Smith, J. G. Seidman and K. Strahl, Eds., John Wiley and Sons, New York.] The human epithelioid carcinoma cell line HeLa 229 was obtained from the American Type Culture Collection (Bethesda, Md.). HeLa cells were maintained as monolayers on 6-well plates in Dulbecco's Modified Eagle's medium (DMEM) supplemented with 10% fetal bovine serum and 100 U/ml penicillin. Treatment with oligonucleotide and isolation of RNA were essentially as described above for T24 cells.
Northern hybridization: 10 μg of each RNA was electrophoresed on a 1.2% agarose/formaldehyde gel and transferred overnight to GeneBind 45 nylon membrane (Pharmacia LKB, Piscataway, N.J.) using standard methods. [Kingston in Current Protocols in Molecular Biology, F. M. Ausubel, R. Brent, R. E. Kingston, D. D. Moore, J. A. Smith, J. G. Seidman and K. Strahl, Eds., John Wiley and Sons, New York.] RNA was UV-crosslinked to the membrane. Double-stranded ^32P-labeled probes were synthesized using the Prime a Gene labeling kit (Promega, Madison Wis.). The ras probe was a SalI-NheI fragment of a cDNA clone of the activated (mutant) H-ras mRNA having a GGC-to-GTC mutation at codon-12. The control probe was G3PDH. Blots were prehybridized for 15 minutes at 68° C. with the QuickHyb hybridization solution (Stratagene, La Jolla, Calif.). The heat-denatured radioactive probe (2.5×10^6 counts/2 ml hybridization solution) mixed with 100 μl of 10 mg/ml salmon sperm DNA was added and the membrane was hybridized for 1 hour at 68° C. The blots were washed twice for 15 minutes at room temperature in 2×SSC/0.1% SDS and once for 30 minutes at 60° C. with 0.1×SSC/0.1% SDS. Blots were autoradiographed and the intensity of signal was quantitated using an ImageQuant PhosphorImager (Molecular Dynamics, Sunnyvale, Calif.). Northern blots were first hybridized with the ras probe, then stripped by boiling for 15 minutes in 0.1×SSC/0.1% SDS and rehybridized with the control G3PDH probe to check for correct sample loading.

[4] = duplex with complementary RNA, first Tm column

O-Propyl: 17-mer CCACACCGACGGCGCCC (SEQ ID NO: 1), 2′-O-propyl nucleotides flanking a 7-base deoxy gap (sugars from the 5' end [OPr]5 d7 [OPr]5, backbone and methylation of C not given here)
Tm [1]: 70.4 °C

AsAoAoAoCoGsTsCsAsGsCsCsAsTsGoGoToCoCsC (AAAACGTCAGCCATGGTCCC; linkages s1 o4 s9 o4 s1 (s phosphorothioate, o phosphodiester), sugars by position and methylation of C not given here; further chemistry not fully specified) [Oligonucleotide 7008]
effect on PKC-α mRNA levels (PKC-α mRNA; listed as 7008): reduction of PKC-α mRNA

oligonucleotide with the 2′-O-propyl diester flanking regions: SEQ ID NO:1, phosphorothioate backbone in the 7-base deoxy gap only, phosphodiester 2′-O-propyl flanking regions (CCACACCGACGGCGCCC; 2'-O-propyl phosphodiester flanks, 7-deoxy phosphorothioate gap, exact positions not given here)
effect on ras expression [2]: able to inhibit ras expression

ps(CGA CUA UGC AAG UAC)
Tm [3, 4]: 60.9 °C

CTTATATTCCGTCATCGCTC (chemistry not given here) [Oligonucleotide 4998, chimeric phosphorothioate, 7-base deoxy gap flanked by 2′-O-methyl regions, AUG target]
inhibition of ras expression / decrease of ras mRNA (ras mRNA; listed as 4998): 84%

AsAsAsAsCsGsTsCsAsGsCsCsAsTsGsGsTsCsCsC (AAAACGTCAGCCATGGTCCC; listed as DNA, chemistry not fully specified) [Oligonucleotide 3522, reference compound]
effect on PKC-α mRNA levels (PKC-α mRNA): reduction of PKC-α mRNA

CsCsAsCoAoCoCoGoAoCoGoGoCoGsCsCsC [ISIS 4241]
effect on ras expression [2]: completely inactive

C^MC^MA^M C^MA^MC^M CdGdAd CdGdG^M C^MG^MC^M C^MC^M [Oligonucleotide 3980]
inhibition of ras-luciferase activity [2]: next greatest inhibition | inhibition of ras expression / decrease of ras mRNA (ras mRNA): 61%

CsCsAsCsAsCsCsGsAoCsGsGsCsGsCsCsC [ISIS 4248]
effect on ras expression [2]: just as active as a full P═S molecule

C^MC^MA^M C^MA^MC^M C^MGdAd CdG^MG^M C^MG^MC^M C^MC^M [Oligonucleotide 3979]
inhibition of ras-luciferase activity [2]: measurable activity for the three nucleotide subsequence oligonucleotide 3979 at the highest concentration dose

CUC GUA CCU UCC GGU CC: SEQ ID NO: 28; adenosine, thymidine and cytidine nucleotides modified to contain 2′-deoxy-2′-fluoro substituents (CUCGUACCUUCCGGUCC; 2'-fluoro on A, U/T, C, G sugar and linkages not given here, further chemistry not given here)
Tm [3, 4]: 81.6 °C

TsCsTs CsGsCs TsGsGs TsGsAs GsTsTs TsC (TCTCGCTGGTGAGTTTC; all phosphorothioate, sugars by position and methylation of C not given here; further chemistry not fully specified) [Oligonucleotide 7082]
effect on PKC-α mRNA levels (PKC-α mRNA): most active

AsAsAsAsCsGsTsCsAsGsCsCsAsTsGsGsTsCsCsC (AAAACGTCAGCCATGGTCCC; all phosphorothioate, sugars by position and methylation of C not given here; further chemistry not fully specified) [Oligonucleotide 5352]
effect on PKC-α mRNA levels (PKC-α mRNA): most active

TCCGTCATCGCTCCTCAGGG [Oligonucleotide 5122]
inhibition of ras expression / decrease of ras mRNA (ras mRNA; listed as 5122): 15%

ps(CGA CTA TGC AAG TAC)
Tm ([3]; change in Tm relative to the unmodified oligonucleotide): −11.2 °C | Tm [3, 4]: 33.9 °C

TsTsCs TsCsGs CsTsGs GsTsGs AsGsTs TsTsC (TTCTCGCTGGTGAGTTTC; all phosphorothioate, sugars by position and methylation of C not given here; further chemistry not fully specified) [Oligonucleotide 6632]
effect on PKC-α mRNA levels (PKC-α mRNA): most active

CTTATATTCCGTCATCGCTC (chemistry not given here) [Compound 2502, phosphorothioate oligonucleotide complementary to the ras AUG region, 20 deoxy, reference compound]
inhibition of ras expression / decrease of ras mRNA (ras mRNA): 26%

C^MC^MA^M C^MA^MC^M C^MG^MAd C^MG^MG^M C^MG^MC^M C^MC^M [Oligonucleotide 3975]
inhibition of ras-luciferase activity [2]: neither of the oligonucleotides having either the one or the three 2′-deoxy-erythro-pentofuranosyl nucleotide subsequences showed significant activity

AsAoAoAoCoGsTsCsAsGsCsCsAsTsGoGoToCoCsC (AAAACGTCAGCCATGGTCCC; linkages s1 o4 s9 o4 s1 (s phosphorothioate, o phosphodiester), sugars by position and methylation of C not given here; further chemistry not fully specified) [Oligonucleotide 7294]
effect on PKC-α mRNA levels (PKC-α mRNA; listed as 7294): more active than their 2′-β-methyl counterparts

C^MC^MA^M C^MAdCd CdGdAd CdGdGd CdG^MC^M C^MC^M [Oligonucleotide 3984]
inhibition of ras-luciferase activity [2]: greater inhibition of ras-luciferase activity than did oligonucleotide 2570 | inhibition of ras expression / decrease of ras mRNA (ras mRNA): 81%

AoAoAoAoCoGsTsCsAsGsCsCsAsTsGoGoToCoCoC (AAAACGTCAGCCATGGTCCC; linkages o5 s9 o5 (s phosphorothioate, o phosphodiester), sugars by position and methylation of C not given here; further chemistry not fully specified) [Oligonucleotide 7273]
effect on PKC-α mRNA levels (PKC-α mRNA): more active than their 2′-β-methyl counterparts

CTC GTA CCT TCC GGT CC: unmodified phosphodiester, SEQ ID NO: 22 (CTCGTACCTTCCGGTCC; unmodified DNA)
Tm [3, 4]: 61.6 °C

Source: patent US20080032945A1, “2'-MODIFIED OLIGONUCLEOTIDES” (Isis Pharmaceuticals, Inc., priority 1992, published 2008)
